Reference: patent US20260070924A1, “INDAZOLE MACROCYCLES AND THEIR USE” (BLOSSOMHILL THERAPEUTICS, INC., priority 2022, published 2026)
pIC50: −log10 of the molar value.

Assays:
MV-4-11 tumor = assay: Cell-derived xenograft (CDX) tumor model; type: in vivo; conditions: MV-4-11 CDX, mice, 20 days
Experimental: (§1) Tumor cells were cultured using standard techniques described above and were harvested and pelleted by centrifugation at 1000 rpm for 5 minutes. The pelleted cells were washed once with serum-free medium followed by subsequent re-suspension in the serum-free medium supplemented with 50% matrigel (Corning, Inc). Five million tumor cells were implanted subcutaneously to the right flank of each mouse, followed by tumor volume and body weight measurement once or twice per week with an electronic caliper (Fowler) and a balance, respectively. When the average tumor size reached a pre-determined volume, the mice were grouped and treated with Ex. 6. One group of mice were treated with vehicle as control. During treatment, mice were monitored daily by cage side observation. The tumor volume (TV) and body weight was measured twice or three times per week during the treatment. Study ended either after 4-5 weeks of treatment or tumor volume of any mice reached 1000 or 2000 mm^3. Tumor growth inhibition (TGI) was be calculated as follows: […]

SW480 tumor = assay: Cell-derived xenograft (CDX) tumor model; type: in vivo; conditions: mice, oral 25 mg/kg QD, 28 days
Experimental: as §1

MOLM-13 tumor = assay: Cell-derived xenograft (CDX) tumor model; type: in vivo; conditions: MOLM-13 CDX, mice, 13 days
Experimental: as §1

SW403 tumor = assay: Cell-derived xenograft (CDX) tumor model; type: in vivo; conditions: mice, oral 25 mg/kg QD, 20 days
Experimental: as §1

IMR-32 tumor = assay: Cell-derived xenograft (CDX) tumor model; type: in vivo; conditions: IMR-32 CDX, mice, oral 25 mg/kg QD, 8 days
Experimental: as §1

PANC0403 = assay: Cell proliferation panel (CellTiter-Glo 2.0, 5 days); type: cell-based; conditions: Pancreatic adenocarcinoma
Experimental: (§2) Cell proliferation assay was carried out in a panel of 108 cell lines. 1000 (attached cells) or 3000 (suspension cells) cells/100 μl per well were seeded in 96 well black plate with a clear bottom (Corning #3904). Compounds were added using Tecan D300e Digital Dispenser in 1:3 titration for 9 doses. Plates were incubated for 5 days at 37° C. and 5% CO2. Cell proliferation was measured using CellTiter-Glo 2.0 luciferase-based ATP detection assay (Promega, Madison, WI) at 50 μl per well following the manufacturer's protocol. Plates were then read on a TECAN Sparks multimode microplate reader. Data was analyzed using GraphPad Prism 9 (GraphPad Software, San Diego, CA) to obtain IC50 values. IC50 values were determined using Prism software (GraphPad Software, San Diego, CA).

CT26 = assay: as above; type: cell-based; conditions: Murine colon carcinoma fibroblasts
Experimental: as §2

AU565 = assay: as above; type: cell-based; conditions: Breast adenocarcinoma
Experimental: as §2

ASPC1 = assay: as above; type: cell-based; conditions: Pancreatic adenocarcinoma
Experimental: as §2

HGC-27 = assay: as above; type: cell-based; conditions: Gastric carcinoma
Experimental: as §2

U118-MG = assay: as above; type: cell-based; conditions: Brain glioblastoma
Experimental: as §2

HNT-34 = assay: as above; type: cell-based; conditions: Acute myeloid leukemia
Experimental: as §2

KP-N-RT-BM-1 = assay: as above; type: cell-based; conditions: Neuroblastoma
Experimental: as §2

SUIT-2 = assay: as above; type: cell-based; conditions: Pancreatic tubular adenocarcinoma
Experimental: as §2

MIAPaCa-2 = assay: as above; type: cell-based; conditions: Pancreatic carcinoma
Experimental: as §2

KCL22S = assay: as above; type: cell-based; conditions: Chronic myeloid leukemia at blast crisis
Experimental: as §2

SKNO-1 = assay: as above; type: cell-based; conditions: Acute myeloid leukemia
Experimental: as §2

ZR-75-1 = assay: as above; type: cell-based; conditions: Mammary gland ductal carcinoma
Experimental: as §2

H2444 = assay: as above; type: cell-based; conditions: Lung adenocarcinoma NSCLC
Experimental: as §2

SU-DHL-6 = assay: as above; type: cell-based; conditions: Diffuse Large B Cell Lymphoma
Experimental: as §2

KG-1 = assay: as above; type: cell-based; conditions: Acute myelogenous leukemia
Experimental: as §2

LS180 = assay: as above; type: cell-based; conditions: Colorectal adenocarcinoma
Experimental: as §2

KASUMI-1 = assay: as above; type: cell-based; conditions: Acute myeloblastic leukemia
Experimental: as §2

SK-N-SH = assay: as above; type: cell-based; conditions: Neuroblastoma
Experimental: as §2

BJ = assay: as above; type: cell-based; conditions: Skin fibroblast
Experimental: as §2

H2087 = assay: as above; type: cell-based; conditions: Lung adenocarcinoma NSCLC
Experimental: as §2

KATOIII = assay: as above; type: cell-based; conditions: Gastric carcinoma
Experimental: as §2

DLD1 = assay: as above; type: cell-based; conditions: Colorectal adenocarcinoma
Experimental: as §2

THP-1 = assay: as above; type: cell-based; conditions: Acute monocytic leukemia
Experimental: as §2

U138-MG = assay: as above; type: cell-based; conditions: Brain glioblastaoma
Experimental: as §2

SW403 = assay: as above; type: cell-based; conditions: Colorectal adenocarcinoma
Experimental: as §2

HCC78 = assay: as above; type: cell-based; conditions: Non-small cell lung carcinoma
Experimental: as §2

MOLM-1 = assay: as above; type: cell-based; conditions: Chronic myeloid leukemia
Experimental: as §2

DU4475 = assay: as above; type: cell-based; conditions: Breast carcinoma
Experimental: as §2

COLO320 = assay: as above; type: cell-based; conditions: Colorectal adenocarcinoma
Experimental: as §2

H1792 = assay: as above; type: cell-based; conditions: Lung adenocarcinoma NSCLC
Experimental: as §2

N87 = assay: as above; type: cell-based; conditions: Gastric carcinoma
Experimental: as §2

pIC50 (PANC0403): 6.66
pIC50 (ASPC1): 6.62
pIC50 (MIAPaCa-2): 7.27
pIC50 (SKNO-1): 7.63
pIC50 (H2444): 6.93
pIC50 (SU-DHL-6): 7.55
pIC50 (SK-N-SH): 7.66
pIC50 (H2087): 6.85
pIC50 (DLD1): 7.31
pIC50 (THP-1): 6.97
pIC50 (SW403): 7.74
pIC50 (HCC78): 7.37
pIC50 (MOLM-1): 7.09
pIC50 (COLO320): 7.07
pIC50 (H1792): 6.92
Compound: CCc1nn(C)c2c1/C=C/c1n[nH]c3ccc(cc13)-c1cnn(C)c1OCCN(C)C2=O [Ex. 6, (17E)-16-ethyl-8,12,14-trimethyl-2,11,12,14-tetrahydro-8H-3,5-ethenotripyrazolo[3,4-f:3′,4′-j:4″,3″-n][1,4]oxazacyclopentadecin-13(10H)-one]
TGI % (MV-4-11 tumor; oral 6.25 mg/kg QD): 98.8%
TGI % (MV-4-11 tumor; oral 12.5 mg/kg QD): 189%
TGI % (MV-4-11 tumor; oral 25 mg/kg QD, 5dOn-2dOff): 200%
TGI % (MV-4-11 tumor; oral 25 mg/kg QD): 200%
TGI % (SW480 tumor): 93%
TGI % (MOLM-13 tumor; oral 12.5 mg/kg QD): 74%
TGI % (MOLM-13 tumor; oral 25 mg/kg QD): 94%
TGI % (SW403 tumor): 84%
TGI % (IMR-32 tumor): 82%
pIC50 (CT26): 6.67
pIC50 (AU565): 7.59
pIC50 (HGC-27): 7.00
pIC50 (U118-MG): 6.51
pIC50 (HNT-34): 7.65
pIC50 (KP-N-RT-BM-1): 7.82
pIC50 (SUIT-2): 6.41
pIC50 (KCL22S): 7.21
pIC50 (ZR-75-1): 6.84
pIC50 (KG-1): 6.82
pIC50 (LS180): 7.08
pIC50 (KASUMI-1): 7.85
pIC50 (BJ): 6.29
pIC50 (KATOIII): 6.80
pIC50 (U138-MG): 6.77
pIC50 (DU4475): 7.21
pIC50 (N87): 7.68
